Laboratory results taken from ChEMBL document CHEMBL1144180, “Phenylethyl cinnamides: a new series of alpha-glucosidase inhibitors from the leaves of Aegle marmelos” (Bioorg Med Chem Lett, 2008).
Activity calls are given as the source filed them. The rule behind the calls is not given here.

Experiments:
[1] = Inhibition of alpha-glucosidase at 10.0 ug/ml
[2] = Inhibition of alpha-glucosidase at 5.0 ug/ml
[3] = Inhibition of alpha-glucosidase at 1.25 ug/ml
[4] = Inhibition of alpha-glucosidase at 2.5 ug/ml
[5] = Inhibition of alpha-glucosidase

Row | SMILES | inhibition [1] | inhibition [2] | inhibition [3] | inhibition [4] | Activity [2] | Activity [3] | Activity [4] | IC50 [5]
1 | COc1ccc([C@@H](CNC(=O)/C=C/c2ccccc2)OC)cc1 | 12.6% | – | – | – | inactive | inactive | inactive | –
2 | COc1ccc([C@@H](CNC(=O)/C=C/c2ccccc2)O[C@@H]2O[C@H](CO)[C@@H](O)[C@H](O)[C@H]2O)cc1 | 17.6% | 11.6% | 4.6% | 6.1% | – | – | – | –
3 | COc1ccc(/C=C/NC(=O)/C=C/c2ccccc2)cc1 [ANHYDROAEGELINE] | 56.5% | 25.2% | 1.7% | 7.5% | – | – | – | 35.8 µM

More lines, now with the values ahead:

Row | inhibition [1] | inhibition [2] | inhibition [3] | inhibition [4] | Activity [2] | Activity [3] | Activity [4] | IC50 [5] | SMILES
4 | 36% | 20.9% | 5.3% | 11.2% | – | – | – | – | COc1ccc([C@H](O)CNC(=O)/C=C/c2ccccc2)cc1
5 | 8.8% | 3.4% | – | – | – | inactive | inactive | – | COc1ccc([C@@H](CNC(=O)/C=C\c2ccccc2)O[C@@H]2O[C@H](CO)[C@@H](O)[C@H](O)[C@H]2O)cc1
6 | 30.1% | 13.2% | 1.3% | 8.1% | – | – | – | – | CC(C)=CCOc1ccc(/C=C/NC(=O)/C=C/c2ccccc2)cc1
7 | 19.7% | 15.9% | – | – | – | inactive | inactive | – | CC(C)=CCOc1ccc(CCNC(=O)/C=C/c2ccccc2)cc1
8 | 13.5% | 11.4% | 1.5% | 7.8% | – | – | – | – | COc1ccc([C@H](O)CNC(=O)c2ccccc2)cc1
